In the supplement of paper PMC10307832 one finds relative viability data, which are given here for one cell line.

What all share (assay): relative viability (nuclei count vs DMSO), 5 days (fraction); higher = more cells survive
Compound in assay [1]: C1COCCN1C2=NC(=NC3=C2OC4=C3C=CC=N4)C5=CC(=CC=C5)NC(=O)C6=CN=C(C=C6)N + O=C(CCCCCCC(=O)Nc1ccccc1)NO [Vorinostat] (partner 1 µM)
The method, boiled down: (§1)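 The day after seeding in 1536-well plates, lung cancer cell lines were treated by pin tool with a single drug, or with a fixed anchor-drug dose together with five library-drug doses (not always all listed) in √10 steps. After 5 days, a combined fix-and-stain solution (final 0.05% Triton X-100, 1% formaldehyde, 1 ug/ml Hoechst) was added. Nuclei counted on 4× images gave relative viability as treated counts over vehicle counts, reported as the median of duplicate plates.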

Compound in assay [2]: Nc1ccccc1NC(=O)c1ccc(CNC(=O)OCc2cccnc2)cc1 [Entinostat] + COc1cccc2cc(-c3nc([C@H]4CC[C@H](C(=O)O)CC4)n4ncnc(N)c34)[nH]c12 [OSI-027] (partner 0.5 µM)
The procedure, abridged:
as §1

Compound in assay [3]: Nc1ccccc1NC(=O)c1ccc(CNC(=O)OCc2cccnc2)cc1 [Entinostat] + CC(C)C[C@H](NC(=O)[C@H](Cc1ccccc1)NC(=O)c1cnccn1)B(O)O [Bortezomib] (partner 0.002 µM)
The procedure, abridged:
as §1

Compound in assay [4]: CN1CCC(CNc2ccc3ncc(-c4cccc(OC(F)(F)F)c4)n3n2)CC1 [SGI-1776] + CC(C)C[C@H](NC(=O)[C@H](Cc1ccccc1)NC(=O)c1cnccn1)B(O)O [Bortezomib] (partner 0.002 µM)
The method, boiled down:
as §1

For UMC-11, the relative viability was 0.415 in assay [1] (first compound 0.02 µM); 0.382 in assay [1] (first compound 0.06325 µM); 0.352 in assay [1] (first compound 0.2 µM); 0.369 in assay [1] (first compound 0.6325 µM); 0.264 in assay [1] (first compound 2 µM); 0.445 in assay [2] (first compound 0.02 µM). The relative viability in assay [2] (first compound 0.06325 µM) came to 0.499; in assay [2] (first compound 0.2 µM), 0.388; in assay [2] (first compound 0.6325 µM), 0.207; in assay [2] (first compound 2 µM), 0.213; in assay [3] (first compound 0.02 µM) it was 0.557; in assay [3] (first compound 0.06325 µM), 0.708. The relative viability was determined as 0.827 in assay [3] (first compound 0.2 µM); 0.217 in assay [3] (first compound 0.6325 µM); 0.111 in assay [3] (first compound 2 µM); 0.741 in assay [4] (first compound 0.08 µM); 0.809 in assay [4] (first compound 0.8 µM); 0.647 in assay [4] (first compound 2.53 µM). Further, the relative viability in assay [4] (first compound 8 µM) amounted to 0.688.
